Results as given in ChEMBL document CHEMBL4325848, “Quinoline and quinolone dimers and their biological activities: An overview” (Eur J Med Chem, 2019).
Converted amounts (≈) assume the structure as drawn.

Legend:
[1] = tested on: Plasmodium falciparum; assay: Antiprotozoal activity against chloroquine-sensitive Plasmodium falciparum D6; format: functional, organism-based
[2] = tested on: Plasmodium falciparum; assay: Antiprotozoal activity against chloroquine-resistant Plasmodium falciparum W2; format: functional, organism-based
[3] = tested on: Plasmodium falciparum; assay: Antimalarial activity against chloroquine-resistant Plasmodium falciparum FcB1; format: functional, organism-based; conditions: FcB1/Columbia
[4] = Cytotoxicity against human MRC5 cells; format: cell-based
[5] = Selectivity index, ratio of CC50 for human MRC5 cells to IC50 for chloroquine-resistant Plasmodium falciparum FcB1; format: toxicity; conditions: read-out: Ratio CC50/IC50
[6] = target: Histone-lysine N-methyltransferase, H3 lysine-79 specific (Homo sapiens, UniProt Q8TEK3); assay: Inhibition of DOT1L (unknown origin)
[7] = tested on: Staphylococcus aureus; assay: Antibacterial activity against Staphylococcus aureus; format: functional
[8] = tested on: Enterococcus; assay: Antibacterial activity against Enterococcus; format: functional
[9] = tested on: Escherichia coli; assay: Antibacterial activity against Escherichia coli; format: functional
[10] = tested on: Proteus; assay: Antibacterial activity against Proteus; format: functional
[11] = tested on: Shigella; assay: Antibacterial activity against Shigella; format: functional
[12] = tested on: Klebsiella pneumoniae; assay: Antibacterial activity against Klebsiella pneumoniae; format: functional
[13] = tested on: Plasmodium falciparum; assay: Antimalarial activity against chloroquine-sensitive Plasmodium falciparum 3D7; format: functional, organism-based
[14] = tested on: Plasmodium falciparum; assay: Antimalarial activity against chloroquine-resistant Plasmodium falciparum K1; format: functional, organism-based
[15] = tested on: HL-60; assay: Antiproliferative activity against human HL60 cells; format: functional, cell-based
[16] = tested on: Plasmodium vinckei; assay: Antimalarial activity against Plasmodium vinckei infected in ip dosed mouse; format: functional
[17] = tested on: MV4-11; assay: Antiproliferative activity against human MV4-11 cells; format: functional, cell-based
[18] = tested on: Kasumi 1; assay: Antiproliferative activity against human Kasumi-1 cells; format: functional, cell-based
[19] = tested on: Plasmodium berghei; assay: Antimalarial activity against Plasmodium berghei N/13 infected in MF1 mouse; format: functional; conditions: read-out: ID50 (the source's name)
[20] = tested on: Plasmodium falciparum; assay: Antimalarial activity against chloroquine-sensitive Plasmodium falciparum D10; format: functional, organism-based
[21] = tested on: Plasmodium falciparum; assay: Antimalarial activity against pfmdr1-overexpressing chloroquine-resistant Plasmodium falciparum K1mef; format: functional, organism-based; conditions: K1 mef
[22] = tested on: Plasmodium falciparum; assay: Potency index, ratio of chloroquine IC50 to compound IC50 for antimalarial activity against chloroquine-resistant Plasmodium falciparum K1; format: functional
[23] = tested on: MDA-MB-468; assay: Antiproliferative activity against human MDA-MB-468 cells; format: functional
[24] = tested on: MCF7; assay: Antiproliferative activity against human MCF7 cells; format: functional
[25] = tested on: Escherichia coli; assay: Antibacterial activity against Escherichia coli ATCC 8739 assessed as zone of inhibition at 50 ug/disc; format: functional; conditions: read-out: DIZ
[26] = tested on: Staphylococcus aureus; assay: Antibacterial activity against Staphylococcus aureus ATCC 6538 assessed as zone of inhibition at 100 ug/disc; format: functional; conditions: read-out: DIZ
[27] = tested on: Staphylococcus aureus; assay: Antibacterial activity against Staphylococcus aureus 1199; format: functional
[28] = tested on: Staphylococcus aureus; assay: Antibacterial activity against Staphylococcus aureus 1199-3; format: functional
[29] = tested on: Staphylococcus aureus; assay: Antibacterial activity against Staphylococcus aureus 1199B; format: functional
[30] = tested on: Staphylococcus aureus; assay: Antibacterial activity against glycopeptide-intermediate Staphylococcus aureus; format: functional

Chain of Histone-lysine N-methyltransferase, H3 lysine-79 specific (Q8TEK3 whole entry): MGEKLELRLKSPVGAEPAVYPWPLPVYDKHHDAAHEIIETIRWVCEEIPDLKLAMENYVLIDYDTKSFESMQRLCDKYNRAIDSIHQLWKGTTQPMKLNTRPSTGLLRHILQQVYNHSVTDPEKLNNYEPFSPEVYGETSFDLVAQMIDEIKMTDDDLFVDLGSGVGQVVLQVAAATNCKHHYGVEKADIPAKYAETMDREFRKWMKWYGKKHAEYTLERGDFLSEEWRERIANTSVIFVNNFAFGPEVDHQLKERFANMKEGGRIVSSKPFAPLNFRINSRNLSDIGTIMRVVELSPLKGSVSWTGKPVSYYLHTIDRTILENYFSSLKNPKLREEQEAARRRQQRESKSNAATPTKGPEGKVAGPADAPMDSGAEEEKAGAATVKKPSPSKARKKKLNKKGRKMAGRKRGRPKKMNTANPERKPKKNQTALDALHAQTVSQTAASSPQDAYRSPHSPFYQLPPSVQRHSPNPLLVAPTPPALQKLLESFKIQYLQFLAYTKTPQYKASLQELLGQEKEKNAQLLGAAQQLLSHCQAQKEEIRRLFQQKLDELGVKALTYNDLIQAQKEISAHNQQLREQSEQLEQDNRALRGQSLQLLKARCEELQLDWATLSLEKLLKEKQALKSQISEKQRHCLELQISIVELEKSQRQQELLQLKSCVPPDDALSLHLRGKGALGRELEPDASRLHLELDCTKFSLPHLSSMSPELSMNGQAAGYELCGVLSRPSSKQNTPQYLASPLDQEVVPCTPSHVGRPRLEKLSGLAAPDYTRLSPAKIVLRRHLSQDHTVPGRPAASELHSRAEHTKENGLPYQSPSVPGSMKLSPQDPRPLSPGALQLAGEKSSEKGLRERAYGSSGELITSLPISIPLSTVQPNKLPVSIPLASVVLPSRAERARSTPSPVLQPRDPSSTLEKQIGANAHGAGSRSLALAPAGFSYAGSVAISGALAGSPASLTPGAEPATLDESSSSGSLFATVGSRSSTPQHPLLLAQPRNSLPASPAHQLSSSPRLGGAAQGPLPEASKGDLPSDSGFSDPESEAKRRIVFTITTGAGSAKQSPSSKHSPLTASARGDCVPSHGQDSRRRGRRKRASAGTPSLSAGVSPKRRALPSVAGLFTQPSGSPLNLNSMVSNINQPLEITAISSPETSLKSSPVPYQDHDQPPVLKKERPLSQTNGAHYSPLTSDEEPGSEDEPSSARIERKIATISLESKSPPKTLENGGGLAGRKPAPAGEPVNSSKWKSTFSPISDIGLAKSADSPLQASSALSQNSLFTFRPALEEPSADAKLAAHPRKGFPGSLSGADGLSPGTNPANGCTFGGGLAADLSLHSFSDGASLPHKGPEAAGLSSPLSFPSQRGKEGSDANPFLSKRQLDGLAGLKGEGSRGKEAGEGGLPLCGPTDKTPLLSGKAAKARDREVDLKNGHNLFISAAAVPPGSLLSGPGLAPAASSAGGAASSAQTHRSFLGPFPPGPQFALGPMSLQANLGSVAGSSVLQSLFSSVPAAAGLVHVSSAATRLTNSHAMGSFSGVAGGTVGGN

Molecule `Clc1ccc2c(NCCOCCOCCNc3ccnc4cc(Cl)ccc34)ccnc2c1` has an IC50 [1] of 1.2 to 89 nM and an IC50 [2] of 1.2 to 89 nM.
`Clc1ccc2c(NCCOCCNc3ccnc4cc(Cl)ccc34)ccnc2c1` gave an IC50 [1] of 1.2 to 89 nM and an IC50 [2] of 1.2 to 89 nM.
For `CN(CCCNc1ccnc2cc(Cl)ccc12)CCCNc1ccnc2cc(Cl)ccc12`, the IC50 [1] was 1.2 to 89 nM and the IC50 [2] was 1.2 to 89 nM.
For `Clc1ccc2c(NCCCN3CCN(CCCNCc4ccnc5ccccc45)CC3)ccnc2c1`, the IC50 [3] was 20.1 nM, the CC50 [4] was 16400 nM and the selectivity ratio [5] was 816.
`Cc1cc(N)c2cc(Nc3ccnc(Nc4ccc5nc(C)cc(N)c5c4)n3)ccc2n1` gave an IC50 [6] of 1080 nM.
In the case of `Clc1ccc2c(NCCCCCCNCCCCCCNc3ccnc4cc(Cl)ccc34)ccnc2c1`, the IC50 [1] is reported as 1.2 to 89 nM and the IC50 [2] is reported as 1.2 to 89 nM.
`Clc1ccc2c(NCCCOCCOCCOCCCNc3ccnc4cc(Cl)ccc34)ccnc2c1` gave an IC50 [1] of 1.2 to 89 nM and an IC50 [2] of 1.2 to 89 nM.
`Clc1ccc2c(NCCCNCCNc3ccnc4cc(Cl)ccc34)ccnc2c1` showed an IC50 [1] of 1.2 to 89 nM and an IC50 [2] of 1.2 to 89 nM.
`O=C(O)c1cn(C2CC2)c2cc(N3CCN(c4nc(N5CCN(c6cc7c(cc6F)c(=O)c(C(=O)O)cn7C6CC6)CC5)c(F)c(S(=O)(=O)c5ccccc5)c4F)CC3)c(F)cc2c1=O` gave an MIC [7] of 0.25 to 2 µg/mL (≈ 0.274 to 2.19 µM), an MIC [8] of 0.25 to 2 µg/mL (≈ 0.274 to 2.19 µM) and an MIC [9] of 0.25 to 2 µg/mL (≈ 0.274 to 2.19 µM). The MIC [10] was 0.25 to 2 µg/mL (≈ 0.274 to 2.19 µM), the MIC [11] was 0.25 to 2 µg/mL (≈ 0.274 to 2.19 µM) and the MIC [12] was 0.25 to 2 µg/mL (≈ 0.274 to 2.19 µM).
Work on `Clc1ccc2c(NCCCOCCCCOCCCNc3ccnc4cc(Cl)ccc34)ccnc2c1` yielded an IC50 [1] of 1.2 to 89 nM and an IC50 [2] of 1.2 to 89 nM.
`CCC(C)[C@H](Nc1ccnc2cc(Cl)ccc12)C(=O)NCCNc1ccnc2cc(Cl)ccc12` (stereo not given in full) showed an IC50 [13] of 24 nM and an IC50 [14] of 26 nM.
In the case of `COc1cc(C)nc2ccc(Nc3cc(C)nc(Nc4ccc5nc(C)cc(OC)c5c4)n3)cc12`, the IC50 [6] is reported as 21700 nM.
For `Cc1cc(Nc2ccc3nc(C)cc(O)c3c2)nc(Nc2ccc3nc(C)cc(O)c3c2)n1`, the IC50 [6] was 4350 nM.
Molecule `C[C@H]1COc2c(N3CCN(C)CC3)c(F)cc3c(=O)c(-c4nn5c(-c6cn(C7CC7)c7cc(N8CCNCC8)c(F)cc7c6=O)nnc5s4)cn1c23` has an IC50 [15] of 120 nM.
For `CN1CCN(c2cc3c(cc2F)c(=O)c(-c2nn4c(-c5cn(C6CC6)c6cc(N7CCNCC7)c(F)cc6c5=O)nnc4s2)cn3C2CC2)CC1`, the IC50 [15] was 540 nM.
`c1ccc2c(c1)nc(NCCCN1CCN(CCCNc3nc4ccccc4c4sccc34)CC1)c1ccsc12` showed an ED50 [16] of 30 mg/kg.
Molecule `O=C(O)c1cn(C2CC2)c2cc(N3CCN(c4nc(Cl)nc(N5CCN(c6cc7c(cc6F)c(=O)c(C(=O)O)cn7C6CC6)CC5)n4)CC3)c(F)cc2c1=O` has an MIC [7] of 0.25 to 2 µg/mL (≈ 0.323 to 2.58 µM), an MIC [8] of 0.25 to 2 µg/mL (≈ 0.323 to 2.58 µM) and an MIC [9] of 0.25 to 2 µg/mL (≈ 0.323 to 2.58 µM). It also gave an MIC [10] of 0.25 to 2 µg/mL (≈ 0.323 to 2.58 µM), an MIC [11] of 0.25 to 2 µg/mL (≈ 0.323 to 2.58 µM) and an MIC [12] of 0.25 to 2 µg/mL (≈ 0.323 to 2.58 µM).
`Cc1cc(N)c2cc(Nc3cc(Nc4ccc5nc(C)cc(N)c5c4)ncn3)ccc2n1` gave an IC50 [6] of 1060 nM, an IC50 [17] of 30500 nM and an IC50 [18] of 45800 nM.
`FC(F)(F)c1ccc2c(N[C@@H]3CCCC[C@H]3Nc3ccnc4cc(C(F)(F)F)ccc34)ccnc2c1` gave an ED50 [19] of 5.9 mg/kg.
For `Cc1cc(Nc2ccc3nc(C)cc(N)c3c2)nc(Nc2ccc3nc(C)cc(N)c3c2)n1`, the IC50 [6] was 1500 nM.
Molecule `CCC1C[C@@H]2CC[C@H]1CC2C(O)c1ccnc2c(NC(=O)CCCCC(=O)Nc3cccc4c(C(O)C5C[C@@H]6CC[C@H]5C(CC)C6)ccnc34)cccc12` (stereo not given in full) has an IC50 [14] of 20 nM, an IC50 [20] of 50 nM and an IC50 [21] of 20 nM.
For `CCN(CC)CCCC(C)Nc1cc(CCCCCCCCCCCCc2cc(NC(C)CCCN(CC)CC)c3ccccc3n2)nc2ccccc12` (stereo not given), the “Ratio IC50” value [22] was 31.7.
In the case of `Clc1ccc2c(NCCNc3ccnc4cc(Cl)ccc34)ccnc2c1`, the GI50 [23] is reported as 7350 nM and the GI50 [24] is reported as 14800 nM.
In the case of `Clc1ccc2c(N[C@@H]3CCCC[C@H]3Nc3ccnc4cc(Cl)ccc34)ccnc2c1` (relative stereo), the IC50 [1] is reported as 1 nM, the IC50 [2] is reported as 1.4 nM and the ED50 [19] is reported as 3 mg/kg.
Work on `O=C(O)c1cn(C2CC2)c2cc(N3CCNCC3)c(F)cc2c1=O` [CIPROFLOXACIN] yielded a zone of inhibition at 50 µg/disc [25] of 36 mm, a zone of inhibition at 100 µg/disc [26] of 38 mm and an MIC [27] of 0.125 to 16 µg/mL (≈ 0.377 to 48.3 µM). The MIC [28] was 0.125 to 16 µg/mL (≈ 0.377 to 48.3 µM), the MIC [29] was 0.125 to 16 µg/mL (≈ 0.377 to 48.3 µM) and the MIC [30] was > 16 µg/mL.
In the case of `CCn1cc(C(=O)O)c(=O)c2cc(F)c(N3CCNCC3)cc21` [NORFLOXACIN], the MIC [27] is reported as 0.125 to 16 µg/mL (≈ 0.391 to 50.1 µM), the MIC [28] is reported as 0.125 to 16 µg/mL (≈ 0.391 to 50.1 µM) and the MIC [29] is reported as 0.125 to 16 µg/mL (≈ 0.391 to 50.1 µM). The MIC [30] was > 16 µg/mL.
For `CCn1cc(C(=O)O)c(=O)c2cnc(N3CCNCC3)nc21` [PIPEMIDIC ACID], the MIC [27] was 0.125 to 16 µg/mL (≈ 0.412 to 52.7 µM), the MIC [28] was 0.125 to 16 µg/mL (≈ 0.412 to 52.7 µM) and the MIC [29] was 0.125 to 16 µg/mL (≈ 0.412 to 52.7 µM). For the same molecule, the MIC [30] was > 16 µg/mL.
